Key:
[1] = tested on: A549 human lung cancer tumor; experiment: Tissue distribution in lung tumor-bearing nude mice; format: in vivo
Description: Female athymic nude mice (NCr-nu/nu, NCI, Bethasda, Md.) were inoculated with human lung cancer cells (A549 tumor cell line, 3×10^6 cells/mouse, intramuscular) by one author in the mid-dorsal region. After the tumor reached 6 mm, separate biodistribution studies using ^99mTc-EC-DG and 18F-FDG were conducted. Each received ^99mTc-EC-DG or 18F-FDG intravenously (n=3/time point). The injection activity was 1-3 μCi/mouse. The injected mass of ^99mTc-EC-DG was 0.2 mg/rodent.

[2] = tested on: RBA CRL-1747 (breast cancer cells); experiment: In vitro cellular uptake compared to ^99mTc-EC in breast cancer cells; format: cell-based, rat; conditions: 0.5-2 hrs
Description: An in vitro cell culture using tumor cells was incubated with ^99mTc-EC-celecoxib (4 μCi/50,000 cells/well) at 0.5-2 hrs in RBA CRL-1747.
An in vitro cell culture using tumor cells was incubated with ^99mTc-EC-LH antibody (4 μCi/50,000 cells/well) at 0.5-2 hrs in RBA CRL-1747 (breast cancer cells).
An in vitro cell culture using tumor cells was incubated with ^99mTc-EC-carnitine (4-6 μCi/50,000 cells/well) at 0.5-2 hrs in breast cancer cells.

[3] = tested on: RBA CRL-1747 mammary tumor; experiment: Biodistribution in breast (mammary) tumor-bearing rats; format: in vivo, rat; conditions: iv
Description: Biodistribution was assessed in mammary tumor-bearing rats (RBA CRL-1747, n=3/time interval, iv). Studies were performed 14 to 17 days after implantation when tumors reached approximately 1 cm in diameter. Following administration of the radiotracer, rats were sacrificed at 0.5-4 hrs. The selected tissues were excised, weighed and counted for radioactivity by using a gamma counter (Packard Instruments, Downers Grove, Ill.). The biodistribution of tracer in each sample was calculated as percentage of the injected dose per gram of tissue wet weight (% ID/g).
Biodistribution was assessed in breast tumor-bearing rats (RBA CRL-1747, n=3/time interval, iv). Studies were performed 14 to 17 days after implantation when tumors reached approximately 1 cm in diameter. Following administration of the radiotracer, rats were sacrificed at 0.5-4 hrs. The selected tissues were excised, weighed and counted for radioactivity by using a gamma counter (Packard Instruments, Downers Grove, Ill.). The biodistribution of tracer in each sample was calculated as percentage of the injected dose per gram of tissue wet weight (% ID/g).

RBA CRL-1747 = experiment: In vitro cellular uptake and blocking of ^99mTc-EC-angiostatin with unlabeled angiostatin; format: cell-based, rat; conditions: unlabeled angiostatin 0-200 μM, RBA CRL-1747, 2 hours; read-out: IC-50 of angiostatin (inhibition of ^99mTc-EC-angiostatin uptake)
Description: The IC-50 of angiostatin was 176 μM (R^2=0.998) (FIG. 3).

## OC[C@H]1OC(O)[C@H]([18F])[C@@H](O)[C@@H]1O (stereo partly shown) [^18FDG, [^18F]fluorodeoxyglucose, reference compound]
[1]; 30 min
  Blood: 0.793 ± 0.067 % of injected dose per gram of tissue weight
  Brain: 6.557 ± 0.390 % of injected dose per gram of tissue weight
  Heart: 11.94 ± 2.571 % of injected dose per gram of tissue weight
  Intestine: 2.322 ± 0.542 % of injected dose per gram of tissue weight
  Kidney: 1.137 ± 0.117 % of injected dose per gram of tissue weight
  Liver: 1.051 ± 0.057 % of injected dose per gram of tissue weight
  Lung: 2.490 ± 0.209 % of injected dose per gram of tissue weight
  Muscle: 4.876 ± 0.621 % of injected dose per gram of tissue weight
  Spleen: 1.824 ± 0.196 % of injected dose per gram of tissue weight
  Stomach: 5.046 ± 0.461 % of injected dose per gram of tissue weight
  Thyroid: 4.490 ± 0.526 % of injected dose per gram of tissue weight
  Tumor: 2.226 ± 0.150 % of injected dose per gram of tissue weight
  Tumor/Blood: 2.821 ± 0.144
  Tumor/Lung: 0.912 ± 0.119
  Tumor/Muscle: 0.463 ± 0.026
[1]; 2 h
  Blood: 0.236 ± 0.009 % of injected dose per gram of tissue weight
  Brain: 3.113 ± 0.132 % of injected dose per gram of tissue weight
  Heart: 20.33 ± 7.675 % of injected dose per gram of tissue weight
  Intestine: 2.764 ± 0.496 % of injected dose per gram of tissue weight
  Kidney: 0.553 ± 0.104 % of injected dose per gram of tissue weight
  Liver: 0.586 ± 0.040 % of injected dose per gram of tissue weight
  Lung: 2.222 ± 0.137 % of injected dose per gram of tissue weight
  Muscle: 5.409 ± 0.611 % of injected dose per gram of tissue weight
  Spleen: 1.903 ± 0.144 % of injected dose per gram of tissue weight
  Stomach: 4.374 ± 0.864 % of injected dose per gram of tissue weight
  Thyroid: 4.617 ± 0.400 % of injected dose per gram of tissue weight
  Tumor: 1.699 ± 0.172 % of injected dose per gram of tissue weight
  Tumor/Blood: 7.261 ± 1.007
  Tumor/Lung: 0.775 ± 0.113
  Tumor/Muscle: 0.319 ± 0.031
[1]; 4 h
  Blood: 0.203 ± 0.062 % of injected dose per gram of tissue weight
  Brain: 2.065 ± 0.080 % of injected dose per gram of tissue weight
  Heart: 19.35 ± 8.286 % of injected dose per gram of tissue weight
  Intestine: 1.562 ± 0.342 % of injected dose per gram of tissue weight
  Kidney: 0.568 ± 0.027 % of injected dose per gram of tissue weight
  Liver: 0.785 ± 0.039 % of injected dose per gram of tissue weight
  Lung: 2.280 ± 0.182 % of injected dose per gram of tissue weight
  Muscle: 4.743 ± 0.610 % of injected dose per gram of tissue weight
  Spleen: 1.591 ± 0.161 % of injected dose per gram of tissue weight
  Stomach: 2.278 ± 0.455 % of injected dose per gram of tissue weight
  Thyroid: 4.424 ± 0.442 % of injected dose per gram of tissue weight
  Tumor: 1.606 ± 0.182 % of injected dose per gram of tissue weight
  Tumor/Blood: 8.932 ± 1.973
  Tumor/Lung: 0.717 ± 0.106
  Tumor/Muscle: 0.346 ± 0.048
[1]; A549 nude mice, iv
  tumor-to-tissue ratios, ^99mTc-EC-DG versus 18F-FDG: higher tumor/blood ratios

## Cc1ccc(-c2cc(C(F)(F)F)nn2-c2ccc(S(=O)(=O)NC(=O)NCC(=O)NCCNC(=O)C3C[S][99Tc]45(=[O])[S]CC(C(=O)O)[N]4CC[N]35)cc2)cc1 (stereo not shown) [^99mTc-EC-celecoxib]
[2]
  cellular uptake compared to ^99mTc-EC: significant increase in uptake
[3]; 0.5-4 hrs
  tumor-to-tissue count density ratios: increased tumor-to-tissue count density ratios as a function of time
[3]; 30 min
  BONE & JOINT: 0.324 ± 0.036 % of injected dose per gram of tissue weight
  BONE/MUSCLE: 2.419 ± 0.225
  Blood: 2.293 ± 0.038 % of injected dose per gram of tissue weight
  Heart: 0.475 ± 0.025 % of injected dose per gram of tissue weight
  Intestine: 0.406 ± 0.039 % of injected dose per gram of tissue weight
  Kidney: 4.963 ± 0.147 % of injected dose per gram of tissue weight
  Liver: 1.556 ± 0.046 % of injected dose per gram of tissue weight
  Lung: 1.033 ± 0.035 % of injected dose per gram of tissue weight
  Muscle: 0.133 ± 0.007 % of injected dose per gram of tissue weight
  Spleen: 0.594 ± 0.298 % of injected dose per gram of tissue weight
  Stomach: 0.370 ± 0.010 % of injected dose per gram of tissue weight
  Thyroid: 0.784 ± 0.090 % of injected dose per gram of tissue weight
  Tumor: 0.587 ± 0.062 % of injected dose per gram of tissue weight
  Tumor/Blood: 0.255 ± 0.022
  Tumor/Muscle: 4.375 ± 0.304
  UTERUS: 0.595 ± 0.003 % of injected dose per gram of tissue weight
  UTERUS/BLOOD: 0.259 ± 0.003
  UTERUS/MUSCLE: 4.471 ± 0.257
[3]; 2 h
  BONE & JOINT: 0.190 ± 0.003 % of injected dose per gram of tissue weight
  BONE/MUSCLE: 3.058 ± 0.114
  Blood: 1.388 ± 0.063 % of injected dose per gram of tissue weight
  Heart: 0.283 ± 0.017 % of injected dose per gram of tissue weight
  Intestine: 0.276 ± 0.061 % of injected dose per gram of tissue weight
  Kidney: 6.088 ± 0.305 % of injected dose per gram of tissue weight
  Liver: 1.461 ± 0.049 % of injected dose per gram of tissue weight
  Lung: 0.712 ± 0.098 % of injected dose per gram of tissue weight
  Muscle: 0.062 ± 0.003 % of injected dose per gram of tissue weight
  Spleen: 0.965 ± 0.056 % of injected dose per gram of tissue weight
  Stomach: 0.187 ± 0.004 % of injected dose per gram of tissue weight
  Thyroid: 0.449 ± 0.015 % of injected dose per gram of tissue weight
  Tumor: 0.424 ± 0.019 % of injected dose per gram of tissue weight
  Tumor/Blood: 0.307 ± 0.018
  Tumor/Muscle: 6.876 ± 0.704
  UTERUS: 0.334 ± 0.034 % of injected dose per gram of tissue weight
  UTERUS/BLOOD: 0.240 ± 0.021
  UTERUS/MUSCLE: 5.442 ± 0.852
[3]; 4 h
  BONE & JOINT: 0.178 ± 0.022 % of injected dose per gram of tissue weight
  BONE/MUSCLE: 4.314 ± 0.739
  Blood: 1.031 ± 0.033 % of injected dose per gram of tissue weight
  Heart: 0.224 ± 0.004 % of injected dose per gram of tissue weight
  Intestine: 0.190 ± 0.006 % of injected dose per gram of tissue weight
  Kidney: 6.363 ± 0.260 % of injected dose per gram of tissue weight
  Liver: 1.506 ± 0.080 % of injected dose per gram of tissue weight
  Lung: 0.500 ± 0.011 % of injected dose per gram of tissue weight
  Muscle: 0.002 ± 0.004 % of injected dose per gram of tissue weight
  Spleen: 0.981 ± 0.041 % of injected dose per gram of tissue weight
  Stomach: 0.139 ± 0.004 % of injected dose per gram of tissue weight
  Thyroid: 0.372 ± 0.021 % of injected dose per gram of tissue weight
  Tumor: 0.406 ± 0.004 % of injected dose per gram of tissue weight
  Tumor/Blood: 0.395 ± 0.014
  Tumor/Muscle: 9.715 ± 0.387
  UTERUS: 0.263 ± 0.005 % of injected dose per gram of tissue weight
  UTERUS/BLOOD: 0.255 ± 0.005
  UTERUS/MUSCLE: 6.278 ± 0.199

## angiostatin
RBA CRL-1747
  IC50: 176 µM
